Results on five molecules are retold here after patent US20260166128A1, “HUMAN AMYLIN ANALOG, AND DERIVATIVE THEREOF AND USE THEREOF” (priority 2022, published 2026).

Numbered stars: 1 amine (or outer) side, 2 acyl side, 3 side chain; on linkers, the order of the positions; unused ones are H or OH. Bridge positions count the residues as written; N and C are the ends. Square brackets hold non-standard residues; d marks the D form. Side chains are listed from the residue outwards. Peptide text beside a SMILES is read from it. * marks the point of attachment. C20 diacid = O=C(O)CCCCCCCCCCCCCCCCCCC(=O)*; γGlu = O=C(O)[C@H](CCC(=O)[*:2])N[*:1]; Hyp = O=C(O)[C@@H]1C[C@@H](O)CN1; Aad = N[C@@H](CCCC(=O)O)C(=O)O; Dab = NCC[C@H](N)C(=O)O; AEEA = NCCOCCOCC(=O)O

One series has as its target T1, human amylin receptor (Homo sapiens, UniProt O60896+P30988).
T1 construct: host or cells: CHO-K1/Ga15/AMY3 cells, further stably transfected with a CRE-luciferase plasmid
T1 sequence (P30988 25-474): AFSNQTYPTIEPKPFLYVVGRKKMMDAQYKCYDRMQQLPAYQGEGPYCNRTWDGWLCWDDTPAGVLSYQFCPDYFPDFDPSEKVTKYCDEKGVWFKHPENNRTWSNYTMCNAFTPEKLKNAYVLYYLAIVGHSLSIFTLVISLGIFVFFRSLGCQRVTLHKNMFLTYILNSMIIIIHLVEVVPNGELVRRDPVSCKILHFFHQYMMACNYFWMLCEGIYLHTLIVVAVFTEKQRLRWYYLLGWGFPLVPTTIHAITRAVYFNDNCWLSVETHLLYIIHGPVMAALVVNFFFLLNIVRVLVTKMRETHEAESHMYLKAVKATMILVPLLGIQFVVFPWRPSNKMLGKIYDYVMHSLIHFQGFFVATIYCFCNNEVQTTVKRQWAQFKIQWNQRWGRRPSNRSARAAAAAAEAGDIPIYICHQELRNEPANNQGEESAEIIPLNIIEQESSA
T1 sequence (O60896 24-148 partner): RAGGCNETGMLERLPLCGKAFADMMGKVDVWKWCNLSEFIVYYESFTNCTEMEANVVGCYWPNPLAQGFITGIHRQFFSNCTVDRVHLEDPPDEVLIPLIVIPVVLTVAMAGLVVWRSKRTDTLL
In words: Luciferase assay of amylin derivatives in amylin receptor/CRE-luc CHO cell line. The class given is cell-based. The conditions noted are these: CHO-K1/Ga15/AMY3 CRE-luc cells, 24 hours incubation, F12 medium containing 10% FBS; read-out: EC50.

Series [1] can be described thus: Freeze-thaw stability of derivatives (freeze-thaw yield by liquid chromatography). The class given is physicochemical. The conditions noted are these: for Dissolution property: appearance after dissolution at 0.2 mg/ml in 20 mM phosphate buffer solution (PB) (pH 7.0); for Freeze storage property: appearance after overnight storage at −20° C. and thawing to room temperature, 0.2 mg/ml in 20 mM PB (pH 7.0); for Freeze storage yield: concentration of polypeptide after freezing and thawing / concentration before, by liquid chromatography, −20° C. overnight. In short, it runs like this:
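Lyophilised peptide derivative dissolved at 0.2 mg/ml in 20 mM phosphate buffer, pH 7.0, frozen overnight at −20° C, then thawed at room temperature. Peptide concentration before and after freeze-thaw measured by reversed-phase HPLC on centrifuged supernatant; yield = post-thaw/pre-thaw concentration.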

Protocol for human amylin receptor: The experiment was intended to detect the activity or efficacy of the amylin derivatives on a human amylin receptor in vitro by luciferase assay.
50 μL of growth medium (F12 medium containing 10% FBS) was added into each well of a white 96-well plate, and the stably transfected amylin/CRE-lue CHO cells were inoculated into the white 96-well plate at a density of about 20,000 cells/well for activity determination.

For the molecule `CC[C@H](C)[C@H](NC(=O)[C@@H]1CCCN1C(=O)[C@H](CCCCNC(=O)CC[C@H](NC(=O)CCCCCCCCCCCCCCCCCCC(=O)O)C(=O)O)NC(=O)[C@H](CC(C)C)NC(=O)[C@H](CC(N)=O)NC(=O)[C@H](CC(N)=O)NC(=O)[C@H](CO)NC(=O)[C@H](CO)NC(=O)[C@H](Cc1c[nH]cn1)NC(=O)[C@H](CCCNC(=N)N)NC(=O)[C@H](CC(C)C)NC(=O)[C@H](Cc1ccccc1)NC(=O)[C@H](CC(=O)O)NC(=O)[C@H](C)NC(=O)[C@H](CC(C)C)NC(=O)[C@H](CCCNC(=N)N)NC(=O)[C@H](CCC(N)=O)NC(=O)[C@@H](NC(=O)[C@H](C)NC(=O)[C@@H]1CSSC[C@H](N)C(=O)N[C@@H](CC(N)=O)C(=O)N[C@@H]([C@@H](C)O)C(=O)N[C@@H](C)C(=O)N[C@@H]([C@@H](C)O)C(=O)N1)[C@@H](C)O)C(=O)N[C@@H](CC(C)C)C(=O)N1CCC[C@H]1C(=O)N1CCC[C@H]1C(=O)N[C@H](C(=O)N[C@@H](CC(N)=O)C(=O)N[C@H](C(=O)NCC(=O)N[C@@H](CO)C(=O)N[C@@H](CC(N)=O)C(=O)N[C@H](C(=O)N1CCC[C@H]1C(N)=O)[C@@H](C)O)C(C)C)[C@@H](C)O` [PD050] (H-CNTATCATQRLADFLRHSSNNLK([γGlu-C20 diacid])PILPPTNVGSNTP-NH2; disulfide 1-6 (inferred)), on human amylin receptor, the EC50 worked out at 98 pM. Moreover, in series [1], the Dissolution property result is “Clear”, the Freeze storage property entry is “Clear” and the Freeze storage yield was 99.66%.
For `CC[C@H](C)[C@H](NC(=O)[C@@H]1CCCN1C(=O)CNC(=O)[C@H](CC(C)C)NC(=O)[C@H](CC(N)=O)NC(=O)[C@H](CCCCNC(=O)COCCOCCNC(=O)CC[C@H](NC(=O)CCCCCCCCCCCCCCCCCCC(=O)O)C(=O)O)NC(=O)[C@H](CO)NC(=O)[C@H](CO)NC(=O)[C@H](Cc1c[nH]cn1)NC(=O)[C@H](CCCNC(=N)N)NC(=O)[C@H](CC(C)C)NC(=O)[C@H](Cc1ccccc1)NC(=O)[C@H](CC(=O)O)NC(=O)[C@H](C)NC(=O)[C@H](CC(C)C)NC(=O)[C@H](CCCNC(=N)N)NC(=O)[C@H](CCC(N)=O)NC(=O)[C@@H](NC(=O)[C@H](C)NC(=O)[C@@H]1CSSC[C@H](NC(=O)[C@@H](N)CCCNC(=N)N)C(=O)N[C@@H](CC(N)=O)C(=O)N[C@@H]([C@@H](C)O)C(=O)N[C@@H](C)C(=O)N[C@@H]([C@@H](C)O)C(=O)N1)[C@@H](C)O)C(=O)N[C@@H](CC(C)C)C(=O)N1CCC[C@H]1C(=O)N1CCC[C@H]1C(=O)N[C@H](C(=O)N[C@@H](CC(N)=O)C(=O)N[C@H](C(=O)NCC(=O)N[C@@H](CO)C(=O)N[C@@H](CC(N)=O)C(=O)N[C@H](C(=O)N1C[C@H](O)C[C@H]1C(N)=O)[C@@H](C)O)C(C)C)[C@@H](C)O` [PD114] (H-RCNTATCATQRLADFLRHSSK([AEEA-γGlu-C20 diacid])NLGPILPPTNVGSNT[Hyp]-NH2; disulfide 2-7 (inferred); N-terminus assumed), the EC50 on human amylin receptor stood at 29 pM. Also, in series [1], the Dissolution property result is on record as “Clear”, the Freeze storage property entry was “Clear” and the Freeze storage yield was 101.02%.
Consider `CC[C@H](C)[C@H](NC(=O)[C@@H]1CCCN1C(=O)[C@H](CCCCNC(=O)CC[C@H](NC(=O)CCCCCCCCCCCCCCCCCCC(=O)O)C(=O)O)NC(=O)[C@H](CC(C)C)NC(=O)[C@H](CC(N)=O)NC(=O)[C@H](CC(N)=O)NC(=O)[C@H](CO)NC(=O)[C@H](CO)NC(=O)[C@H](Cc1c[nH]cn1)NC(=O)[C@H](CCCNC(=N)N)NC(=O)[C@H](CC(C)C)NC(=O)[C@H](Cc1ccccc1)NC(=O)[C@H](CCN)NC(=O)[C@H](C)NC(=O)[C@H](CC(C)C)NC(=O)[C@H](CCCNC(=N)N)NC(=O)[C@H](CCC(N)=O)NC(=O)[C@@H](NC(=O)[C@H](C)NC(=O)[C@@H]1CSSC[C@H](NC(=O)[C@@H](N)CCCNC(=N)N)C(=O)N[C@@H](CC(N)=O)C(=O)N[C@@H]([C@@H](C)O)C(=O)N[C@@H](C)C(=O)N[C@@H]([C@@H](C)O)C(=O)N1)[C@@H](C)O)C(=O)N[C@@H](CC(C)C)C(=O)N1CCC[C@H]1C(=O)N1CCC[C@H]1C(=O)N[C@H](C(=O)N[C@@H](CC(N)=O)C(=O)N[C@H](C(=O)NCC(=O)N[C@@H](CO)C(=O)N[C@@H](CC(N)=O)C(=O)N[C@H](C(=O)N1CCC[C@H]1C(N)=O)[C@@H](C)O)C(C)C)[C@@H](C)O` [PD044] (H-RCNTATCATQRLA[Dab]FLRHSSNNLK([γGlu-C20 diacid])PILPPTNVGSNTP-NH2; disulfide 2-7 (inferred)), for which the EC50 on human amylin receptor is 2620 pM. Moreover, in series [1], the Dissolution property entry was “Clear”, the Freeze storage property result is recorded as “Clear” and the Freeze storage yield is on record as 84.90%.
With `CC[C@H](C)[C@H](NC(=O)[C@@H]1CCCN1C(=O)CNC(=O)[C@H](CC(C)C)NC(=O)[C@H](CC(N)=O)NC(=O)[C@H](CC(N)=O)NC(=O)[C@H](CCCCNC(=O)CC[C@H](NC(=O)CCCCCCCCCCCCCCCCCCC(=O)O)C(=O)O)NC(=O)[C@H](CO)NC(=O)[C@H](Cc1c[nH]cn1)NC(=O)[C@H](CCCNC(=N)N)NC(=O)[C@H](CC(C)C)NC(=O)[C@H](Cc1ccccc1)NC(=O)[C@H](CC(=O)O)NC(=O)[C@H](C)NC(=O)[C@H](CC(C)C)NC(=O)[C@H](CCCNC(=N)N)NC(=O)[C@H](CCC(N)=O)NC(=O)[C@@H](NC(=O)[C@H](C)NC(=O)[C@@H]1CSSC[C@H](NC(=O)[C@@H](N)CCCNC(=N)N)C(=O)N[C@@H](CC(N)=O)C(=O)N[C@@H]([C@@H](C)O)C(=O)N[C@@H](C)C(=O)N[C@@H]([C@@H](C)O)C(=O)N1)[C@@H](C)O)C(=O)N[C@@H](CC(C)C)C(=O)N1CCC[C@H]1C(=O)N1CCC[C@H]1C(=O)N[C@H](C(=O)N[C@@H](CC(N)=O)C(=O)N[C@H](C(=O)NCC(=O)N[C@@H](CO)C(=O)N[C@@H](CC(N)=O)C(=O)N[C@H](C(=O)N1C[C@H](O)C[C@H]1C(N)=O)[C@@H](C)O)C(C)C)[C@@H](C)O` [PD094] (H-RCNTATCATQRLADFLRHSK([γGlu-C20 diacid])NNLGPILPPTNVGSNT[Hyp]-NH2; disulfide 2-7 (inferred); N-terminus assumed), the EC50 at human amylin receptor amounted to 34 pM. In addition, in series [1], the Dissolution property result is on record as “Clear”, the Freeze storage property entry is reported as “Clear” and the Freeze storage yield was determined as 102.94%.
As to `CC[C@H](C)[C@H](NC(=O)[C@@H]1CCCN1C(=O)[C@H](CCCCNC(=O)CC[C@H](NC(=O)CCCCCCCCCCCCCCCCCCC(=O)O)C(=O)O)NC(=O)[C@H](CC(C)C)NC(=O)[C@H](CC(N)=O)NC(=O)[C@H](CC(N)=O)NC(=O)[C@H](CO)NC(=O)[C@H](CO)NC(=O)[C@H](Cc1c[nH]cn1)NC(=O)[C@H](CCCNC(=N)N)NC(=O)[C@H](CC(C)C)NC(=O)[C@H](Cc1ccccc1)NC(=O)[C@H](CCCC(=O)O)NC(=O)[C@H](C)NC(=O)[C@H](CC(C)C)NC(=O)[C@H](CCCNC(=N)N)NC(=O)[C@H](CCC(N)=O)NC(=O)[C@@H](NC(=O)[C@H](C)NC(=O)[C@@H]1CSSC[C@H](NC(=O)[C@@H](N)CCCNC(=N)N)C(=O)N[C@@H](CC(N)=O)C(=O)N[C@@H]([C@@H](C)O)C(=O)N[C@@H](C)C(=O)N[C@@H]([C@@H](C)O)C(=O)N1)[C@@H](C)O)C(=O)N[C@@H](CC(C)C)C(=O)N1CCC[C@H]1C(=O)N1CCC[C@H]1C(=O)N[C@H](C(=O)N[C@@H](CC(N)=O)C(=O)N[C@H](C(=O)NCC(=O)N[C@@H](CO)C(=O)N[C@@H](CC(N)=O)C(=O)N[C@H](C(=O)N1CCC[C@H]1C(N)=O)[C@@H](C)O)C(C)C)[C@@H](C)O` [PD043] (H-RCNTATCATQRLA[Aad]FLRHSSNNLK([γGlu-C20 diacid])PILPPTNVGSNTP-NH2; disulfide 2-7 (inferred); N-terminus assumed), the concentration giving a half-maximal response (EC50) on human amylin receptor was determined as 1130 pM. In series [1], the Dissolution property entry is “Clear”, the Freeze storage property result is recorded as “Clear” and the Freeze storage yield amounted to 49.45%.

By EC50 is commonly meant the concentration at which the effect is half-maximal.
